test system: Toledo cells; experiment: Cell proliferation assay, Toledo cells (MTS, 72 h); assay type: cell-based; conditions: Homo sapiens, Toledo cells, MTS, read-out: Toledo IC50
In short: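 IC50 was derived from 490 nm absorbance after a 2 h MTS step. Before that, compounds at 1.5–10000 nM final (nine points) acted on Toledo cells for 72 h at 37 °C, 5% CO2. Cells were seeded at 30000/well in 10% FBS RPMI-1640 and rested 4 h before dosing.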

For `CO[C@H]1CC[C@H]([C@@H]2COc3cc(S(=O)(=O)NC(=O)c4ccc(N5CCC6(CC5)CC(N5CCC[C@H]5c5ccccc5C(C)C)C6)cc4Oc4cnc5[nH]cc(F)c5c4)cc([N+](=O)[O-])c3N2)CC1` (single isomer, unassigned) [Example D-45, 2-((3-fluoro-1H-pyrrolo[2,3-b]pyridin-5-yl)oxy)-4-(2-((R or S)-2-(2-isopropylphenyl)pyrrolidin-1-yl)-7-azaspiro[3.5]nonan-7-yl)-N-(((R)-3-((1r,4S)-4-methoxycyclohexyl)-5-nitro-3,4-dihydro-2H-benzo[b][1,4]oxazin-7-yl)sulfonyl)benzamide], which IC50 is on record?
The IC50 was 1 nM.

How did the IC50 turn out when `CC(C)c1ccccc1[C@@H]1CC[C@H](CO)N1C1CC2(CCN(c3ccc(C(=O)NS(=O)(=O)c4cc5c(c([N+](=O)[O-])c4)N[C@@H]([C@H]4CC[C@](C)(O)CC4)CO5)c(Oc4cnc5[nH]cc(F)c5c4)c3)CC2)C1` [Example D-254, 2-((3-fluoro-1H-pyrrolo[2,3-b]pyridin-5-yl)oxy)-N-(((S)-3-((1r,4S)-4-hydroxy-4-methylcyclohexyl)-5-nitro-3,4-dihydro-2H-benzo[b] [1,4]oxazin-7-yl)sulfonyl)-4-(2-((2R,5S)-2-(hydroxymethyl)-5-(2-isopropylphenyl)pyrrolidin-1-yl)-7-azaspiro[3.5]nonan-7-yl)benzamide] was run?
Its IC50 is 1 nM.

With `CC(C)c1ccccc1[C@@H]1CS(=O)(=O)CCN1C1CC2(CCN(c3ccc(C(=O)NS(=O)(=O)c4cc5c(c([N+](=O)[O-])c4)N[C@@H]([C@H]4CC[C@](C)(O)CC4)CO5)c(Oc4cnc5[nH]cc(F)c5c4)c3)CC2)C1` (single isomer, unassigned) [Example D-79, 2-((3-fluoro-1H-pyrrolo[2,3-b]pyridin-5-yl)oxy)-N-(((S)-3-((1r,4S)-4-hydroxy-4-methylcyclohexyl)-5-nitro-3,4-dihydro-2H-benzo[b] [1,4]oxazin-7-yl)sulfonyl)-4-(2-((R or S)-3-(2-isopropylphenyl)-1,1-dioxidothiomorpholino)-7-azaspiro [3.5]nonan-7-yl)benzamide] as the compound, how does the IC50 read?
The IC50 was 1 nM.

For `CC(C)c1ccccc1C1(O)CCCC1N1CC2(CCN(c3ccc(C(=O)NS(=O)(=O)c4cc5c(c([N+](=O)[O-])c4)N[C@@H]([C@H]4CC[C@](C)(O)CC4)CO5)c(Oc4cnc5[nH]cc(F)c5c4)c3)CC2)C1` (stereo partly drawn) [Example D-247, 2-((3-fluoro-1H-pyrrolo[2,3-b]pyridin-5-yl)oxy)-4-(2-(2-hydroxy-2-(2-isopropylphenyl)cyclopentyl)-2,7-diazaspiro[3.5]nonan-7-yl)-N-(((S)-3-((1r,4S)-4-hydroxy-4-methylcyclohexyl)-5-nitro-3,4-dihydro-2H-benzo[b][1,4]oxazin-7-yl)sulfonyl)benzamide], which IC50 is on record?
The IC50 was 1 nM.

With `COc1nc2[nH]ccc2cc1Oc1cc(N2CCC3(CC2)CN([C@H]2CCC[C@H]2c2ccccc2C(C)C)C3)ccc1C(=O)NS(=O)(=O)c1ccc(NC[C@H]2CC[C@](C)(O)CC2)c([N+](=O)[O-])c1` (single isomer, unassigned) [Example D-91, N-((4-((((1r,4r)-4-hydroxy-4-methylcyclohexyl)methyl)amino)-3-nitrophenyl)sulfonyl)-4-(2-((1S,2S or 1R,2R)-2-(2-isopropylphenyl)cyclopentyl)-2,7-diazaspiro[3.5]nonan-7-yl)-2-((6-methoxy-177-pyrrolo [2,3-b]pyridin-5-yl)oxy)benzamide] as the compound, how does the IC50 read?
The IC50 was 1 nM.

With `CC(=O)N1CCN(C2CC3(CCN(c4ccc(C(=O)NS(=O)(=O)c5cc6c(c([N+](=O)[O-])c5)N[C@@H]([C@H]5CC[C@](C)(O)CC5)CO6)c(Oc5cnc6[nH]cc(F)c6c5)c4)CC3)C2)[C@H](c2ccccc2C(C)C)C1` (single isomer, unassigned) [Example D-140, 4-(2-((R or S)-4-acetyl-2-(2-isopropylphenyl)piperazin-1-yl)-7-azaspiro[3.5]nonan-7-yl)-2-((3-fluoro-1H-pyrrolo [2,3-b]pyridin-5-yl)oxy)-N-(((S)-3-((1r,4S)-4-hydroxy-4-methylcyclohexyl)-5-nitro-3,4-dihydro-2H-benzo[b][1,4]oxazin-7-yl)sulfonyl)benzamide] as the compound, how does the IC50 read?
The IC50 was 1 nM.

`CC(C)c1ccccc1[C@@H]1CCCN1C1CC2(CCN(c3ccc(C(=O)NS(=O)(=O)c4cc5c(c([N+](=O)[O-])c4)N[C@@H]([C@H]4CC[C@](C)(O)CC4)CO5)c(Oc4cc5cc[nH]c5nc4OC[C@@H]4CCCN4)c3)CC2)C1` (single isomer, unassigned) [Example D-218, N-(((S)-3-((1r,4S)-4-hydroxy-4-methylcyclohexyl)-5-nitro-3,4-dihydro-2H-benzo[b][1,4]oxazin-7-yl)sulfonyl)-4-(2-((R or S)-2-(2-isopropylphenyl)pyrrolidin-1-yl)-7-azaspiro[3.5]nonan-7-yl)-2-((6-(((S)-pyrrolidin-2-yl)methoxy)-1H-pyrrolo[2,3-b]pyridin-5-yl)oxy)benzamide] was tested. Which IC50 did it give?
The IC50 was 1 nM.

With `COCCNc1nc2[nH]ccc2cc1Oc1cc(N2CCC3(CC2)CC(N2CCC[C@H]2c2ccccc2C(C)C)C3)ccc1C(=O)NS(=O)(=O)c1cc2c(c([N+](=O)[O-])c1)N[C@@H]([C@H]1CC[C@](C)(O)CC1)CO2` (single isomer, unassigned) [Example D-56, N-(((S)-3-((1r,4S)-4-hydroxy-4-methylcyclohexyl)-5-nitro-3,4-dihydro-2H-benzo[b][1,4]oxazin-7-yl)sulfonyl)-4-(2-((R or S)-2-(2-isopropylphenyl)pyrrolidin-1-yl)-7-azaspiro[3.5]nonan-7-yl)-2-((6-((2-methoxyethyl)amino)-1H-pyrrolo[2,3-b]pyridin-5-yl)oxy)benzamide] as the compound, how does the IC50 read?
The IC50 was 1 nM.

How did the IC50 turn out when `CC(C)c1ccccc1[C@@H]1CCC[C@@H]1N1CC2(CCN(c3ccc(C(=O)NS(=O)(=O)c4ccc(NC[C@H]5CC[C@](C)(O)CC5)c([N+](=O)[O-])c4)c(Oc4cc5cc[nH]c5nc4Cl)c3)CC2)C1` (single isomer, unassigned) [Example D-232, 2-((6-chloro-1H-pyrrolo[2,3-b]pyridin-5-yl)oxy)-N-((4-((1r,4r)-4-hydroxy-4-methylcyclohexyl)methyl)amino)-3-nitrophenyl) sulfonyl)-4-(2-((1S,2S or 1R,2R)-2-(2-isopropylphenyl) cyclopentyl)-2,7-diazaspiro[3.5] nonan-7-yl)benzamide] was run?
Its IC50 is 1 nM.

How did the IC50 turn out when `CC(C)c1ccccc1[C@@H]1CCCN1C1CC2(CCN(c3ccc(C(=O)NS(=O)(=O)c4cc5c(c([N+](=O)[O-])c4)N[C@@H](C4CCOCC4)CO5)c(Oc4cnc5[nH]cc(F)c5c4)c3)CC2)C1` (single isomer, unassigned) [Example D-48, 2-((3-fluoro-1H-pyrrolo[2,3-b]pyridin-5-yl)oxy)-4-(2-((R or S)-2-(2-isopropylphenyl)pyrrolidin-1-yl)-7-azaspiro[3.5]nonan-7-yl)-N-(((S)-5-nitro-3-(tetrahydro-2H-pyran-4-yl)-3,4-dihydro-2H-benzo[b][1,4]oxazin-7-yl)sulfonyl) benzamide] was run?
Its IC50 is 1 nM.

With `CC(C)c1ccccc1C1=CCCC1N1CC2(CCN(c3ccc(C(=O)NS(=O)(=O)c4cc5c(c([N+](=O)[O-])c4)N[C@@H]([C@H]4CC[C@](C)(O)CC4)CO5)c(Oc4cnc5[nH]cc(F)c5c4)c3)CC2)C1` (stereo partly drawn) [Example D-77, 2-((3-fluoro-1H-pyrrolo[2,3-b]pyridin-5-yl)oxy)-N-(((S)-3-((1r,4S)-4-hydroxy-4-methylcyclohexyl)-5-nitro-3,4-dihydro-2H-benzo[b] [1,4]oxazin-7-yl)sulfonyl)-4-(2-(2-(2-isopropylphenyl)cyclopent-2-en-1-yl)-2,7-diazaspiro[3.5]nonan-7-yl)benzamide] as the compound, how does the IC50 read?
Its IC50 is 1 nM.

Source: patent US20230159527A1, “COMPOUNDS AS BCL-2 INHIBITORS” (Fochon Pharmaceuticals, Ltd., priority 2020, published 2023)
